Results on 1 substance are retold here after patent publication US20120021988A1, “METHODS FOR TREATING IMMUNE THROMBOCYTOPENIA” (priority 2007, published 2012).

One assay relates to FCγIIIb (NA2). Kind of assay: Repeated FcγR reverse ELISA with SEQ ID NO:20 (Table 3). Type of assay: binding. The method, then:
(§1) Experiments with SEQ ID NO:20 were repeated. Costar microtiter plates were coated with 1:10 dilutions of highly purified FcγIIa (His 131 allele aka […]), FcγIIb and FcγIIIb and incubated for 24 hours. The plates were washed and then blocked with 10 mg/ml BSA blocking solution for 24 hours. PAP immune complexes were formed as described in Example 2. PAP (100 μl) were pre-incubated with 100 μl of peptide for one hour. PAP/peptide mixtures were added to the FcγR coated plates and incubated for one hour. After washing, plates were incubated with ABTS substrate for 15 minutes and read at 405 nm.
In general terms: In an ELISA, binding on a coated surface is turned into a signal by an enzyme label.

A further assay relates to FcγIIa (His 131 allele). The assay is described as above. In kind it is binding. To be noted: H131 allele. The protocol:
as §1

The test system of a further assay is FCγIIb/c. The description is as above. In kind it is binding. The protocol: as §1
Another assay deals with mice having induced ITP. Kind of assay: In vivo treatment of ITP induced by rabbit anti-platelet antibody, platelet counting by flow cytometry. The following applies: for Platelet counts, individual mice: intraperitoneal, 24 hours, listed as AP; for Platelet counts, mean: 3 mice, ITP alone mean 170.7, Nil 1016. Also on record: species or system CD-1 mice. The method, then:
Mice: CD-1 mice approximately 6-8 weeks of age were obtained from Charles River (Montreal). The animals were housed 3-5 per cage in filter-topped cages. The temperature and relative humidity were maintained at […] and 35-70%, respectively, and a 12 hour light/dark cycle was used. The mice were fed rodent chow and water ad libitum.
Anti-platelet antibodies to induce ITP: A rabbit anti-platelet antibody (Inter-Cell Technologies, Inc., Jupiter, Fla.; Cat. No. A31440) was used to induce ITP. Each mouse received 10 μl antibody-containing serum, diluted with 190 μl PBS for injection, such that the final injection volume was 200 μl for all groups injected with anti-platelet antibody.
On the day of use, one vial of rabbit anti-platelet antibody was removed from the freezer, placed in a 22° C. water bath, and shaken. The tube was checked every 30 seconds, and when it was completely thawed it was placed in a microcentrifuge and centrifuged at 10,000×g (11,000 rpm) for 10 minutes at 4° C. The supernatant fluid was transferred to a new tube and the pellet was discarded. The supernatant was placed on ice until used or diluted, as appropriate. Unused portions of the sera were discarded.
Therapeutic treatment of ITP: IVIg was used as a standard control treatment for the ITP induced by the rabbit anti-platelet antibody. The IVIg was Gamimmune® N, 10%. Treatment with IVIg consisted of an intraperitoneal injection of 50 mg (500 μl) IVIg, a dose that was equivalent to a dose of 2,000 mg/kg body weight.
Platelet enumeration: All mice were bled via the saphenous vein. 50 μL of blood were collected into 450 μL PBS/1% EDTA. The blood was further diluted in PBS/1% EDTA. Platelets were enumerated by flow cytometry with a Guava microcapillary cytometer (Guava EasyCyteMini, Guava Technologies, Inc., Hayward, Calif.), using forward scatter (FSC) versus side scatter (SSC) to gate platelets.
Peptides used to inhibit ITP: Peptides having the amino acid sequences set forth in SEQ ID NO:2 ([…]), SEQ ID NO:20 ([…]), and a control peptide in which Trp7, Val13 and Trp14 of SEQ ID NO:20 were replaced by alanines ([…]; SEQ ID NO:57) were tested for their ability to inhibit ITP. Alanine substation of Val13 and Trp14 causes a decrease in binding affinity (measured by ΔΔG, where G=Gibbs Energy) of greater than 1,000 fold.
Peptides were stored at −20° C. until the day of use. On the day of use, peptides were removed from the freezer, placed in a 22° C. water bath, shaken, and checked every 30 seconds for thawing. When thawed, the peptides were placed on ice until use. For samples that received a 10× dose of peptide, the following were sequentially added to a 1.5 ml polypropylene Eppendorf tube: 623 μl PBS (pH 7.22), 35 μL rabbit anti-plaletet IgG, and 42 μl peptide, with mixing after each addition. For samples having a 100× dose of peptide, the following were added sequentially to a 1.5 ml polypropylene Eppendorf tube: 245 μl PBS (pH 7.22), 35 μL rabbit anti-plaletet IgG, and 420 μl peptide, with mixing after each addition. The peptides were incubated for at least 30 minutes at 22° C. prior to injection into mice. (A 15 minute incubation in the laboratory, transport of the mixtures to the Vivarium, and injection took roughly an additional 30 minutes.)
The final volume of each peptide mixture was 700 μL, which was sufficient for injection of 3 mice (200 μl/mouse, plus 100 μl to cover dead volume). For the 10× dose/mouse of peptide, 12 μg of peptide (12 μl of 1 mg/ml solution) was mixed with 100 μg of the rabbit anti-platelet IgG (10 μl of 10 mg/ml solution). The volume of 700 μl was about 3.5× the volume injected per mouse (200 μl). To obtain the dose of peptide and rabbit IgG for the 700 μl final volume, dose of peptide or Rabbit IgG per mouse was multiplied by 3.5 (e.g., 12 μl peptide/mouse×3.5=42 μl, 10 μl Rabbit IgG/mouse×3.5=35 μl). PBS (623 μl, pH 7.22) was added to make up the final volume 700 μl. […]

Setting [1] is: ITP + 10X molar amount of peptide.
The mark [2] stands for this setting: ITP + 100X molar amount of peptide.

Several values for one entry are separate records, joined by “and”; a condition that tells them apart may be missing. Equal entries are not always repeated.

Consider “Ala-Pro-Pro-Asp-Cys-Ala-Trp-His-Leu-Gly-Glu-Leu-Val-Trp-Cys-Thr (APPDCAWHLGELVWCT) [SEQ ID NO:20]”, for which the “FCγIIIb (NA2) (read at 405 nm)” value in the assay with FCγIIIb (NA2) (repeat experiment, positive control 3.060) is 0.266. For the same substance, the “% inhibition of IC binding, FCγIIIb (NA2)” value with FCγIIIb (NA2) (versus positive control) is 91%. Also, the “FCγIIa* (read at 405 nm)” value with FcγIIa (His 131 allele) (repeat experiment, positive control 3.509) is given as 0.209. Moreover, in the assay on FcγIIa (His 131 allele) (versus positive control), the “% inhibition of IC binding, FCγIIa*” value was determined as 94%. Also, in the assay on FCγIIb/c (repeat experiment, positive control 2.218), the “FCγIIb/c (read at 405 nm)” value came to 0.266. Further, in the assay on FCγIIb/c (versus positive control), the “% inhibition of IC binding, FCγIIb/c” value worked out at 88%. Moreover, in the assay on mice having induced ITP (setting [1]), the “Platelet counts, individual mice” value is 2.03e+11 L⁻¹ and 2.61e+11 L⁻¹ and 1.97e+11 L⁻¹; the “Platelet counts, mean” value came out at 2.203e+11 L⁻¹. Also, in the assay with mice having induced ITP (setting [2]), the “Platelet counts, individual mice” value is 7.59e+11 L⁻¹ and 6.42e+11 L⁻¹ and 4.33e+11 L⁻¹; the “Platelet counts, mean” value came out at 6.113e+11 L⁻¹. In the assay with mice having induced ITP (first experiment, 100× molar), the “Effect on induced ITP, 100× versus 10×” value was “greater effect than 10× Peptide AP”. In the assay with mice having induced ITP (first experiment, Table 4, 10× and 100× molar), the “Effect on induced ITP” value is listed as “ameliorated induced ITP”. The “Amelioration of induced ITP/AITP compared with IVIg” value in the assay with mice having induced ITP (second experiment, FIG. 1, 10× molar and 100× molar, 24 hours after treatment) is “ameliorated the induced ITP/AITP better than the currently accepted treatment for ITP (IVIg)”.
